Test results as given in US10273224B2, “Substituted pyrimidine compounds, compositions and medicinal applications thereof” (JUBILANT BIOSYS LIMITED, priority 2013, dated 2019).

Target: T1, EGFR (L858R & T790M) (Homo sapiens, UniProt P00533, L858R/T790M)
T1 construct: GST; purchased Proqinase
Experiment: EGFR (L858R & T790M) inhibition assay, HTRF method
Conditions: biochemical HTRF; EGFR (T790M/L858R) 2.5 nM, ATP 5 μM, 60 min room temperature
Method: Example 25: Biological Activity: EGFR T790M Assay Protocol
The objective of the experiment is to find the IC50 for the compounds using HTRF method.
Reagents for Enzyme Assay:
1. Enzyme Assay Buffer: 60 mM HEPES (pH 7.4), 50 mM NaCl, 20 mM MgCl2, 5 mM MnCl2, filter using 0.2 µm pore size, store at 4° C.
Supplements (add fresh to the enzyme buffer): Make 1M DTT stock, 5% BSA stock and 0.1M Na3OV4 stored at 4° C. Enzyme assay buffer 50 ml, 1 M DTT 100 μl, 5% BSA 500 μl, 0.1M Na3OV4 50 μl.
2. GST-hEGFR (L858R), active: EGFR (T790M/L858R), active (Proqinase), 3.6 μM stock; 2.5 nM in final assay.
3. Gastrin Precusor-Biotinylated: Gastrin precursor (Tyr87) biotinylated peptide (EEAY*GWM), Cell Signaling Tech 1310, Lot-7, Want final 0.5 μM in assay
4. ATP: 10 mM stock in 100 μl Enzyme assay buffer pH 7.4 prepared freshly, want 5 μM in final assay.
5. Test compounds: Dissolve powders in 100% DMSO to a final stock concentration of 10 mM (volume in μL to add for 10 mM=mg powder×10^5/MW). Final comp concentration in the assay plate is starting at 10 μM.
1. HTRF buffer: 50 mM Tris-HCl, pH-7.5, 100 mM NaCl, 0.1% BSA, 0.05% Tween20, 0.5 mM EDTA, filter using 0.2 µm pore size, store at 4° C.
Phycolink® Streptavidin-Allophycocyanin (SA-APC) Prozyme, Cat. #PJ25S, Lot #896 085, 2.06 mg/mL, APC concentration is 11.6 μM, streptavidin concentration is 15.5 μM. Want 12 nM final in assay (based on streptavidin concentration).
2. Europium-W1024-PT-66 Anti Phospho Tyrosine Antibody: Perkin Elmer (AD0068), monoclonal IgG1 that recognizes phospho tyrosine peptide 100 μg/ml stock. Want 0.1 nM final in assay.
• 1. Make the compound dilution by TECAN as per the above scheme. • 2. Add 16 μl of diluted compound to the assay plate by using TECAN • 3. Add 10 μl of enzyme mix to each well except mins. • 4. Add 20 μl of substrate and ATP mix into each well of the assay plate manually. • 5. Incubate the plate at room temperature for 60 min with shaking. • 6. Meanwhile prepare the HTRF mix and add 75 μl to the HTRF plate. • 7. When the incubation is over, transfer 10 μl of the reaction mixture to the HTRF assay plate and incubate for 30 min at room temperature with shaking. • 8. Take the reading in Pherastar (ext 337 nm, em 665 & 620 nm). • 9. Analyze the results using Graphpad prism after calculation the z factor, signal window and % inhibition to get the IC50.
Compounds having IC50<10 nM are designated as “A”; 10-100 nM are designated as “B”; and >100 nM as “C”.

T1 sequence (P00533 25-1210 T790M/L858R): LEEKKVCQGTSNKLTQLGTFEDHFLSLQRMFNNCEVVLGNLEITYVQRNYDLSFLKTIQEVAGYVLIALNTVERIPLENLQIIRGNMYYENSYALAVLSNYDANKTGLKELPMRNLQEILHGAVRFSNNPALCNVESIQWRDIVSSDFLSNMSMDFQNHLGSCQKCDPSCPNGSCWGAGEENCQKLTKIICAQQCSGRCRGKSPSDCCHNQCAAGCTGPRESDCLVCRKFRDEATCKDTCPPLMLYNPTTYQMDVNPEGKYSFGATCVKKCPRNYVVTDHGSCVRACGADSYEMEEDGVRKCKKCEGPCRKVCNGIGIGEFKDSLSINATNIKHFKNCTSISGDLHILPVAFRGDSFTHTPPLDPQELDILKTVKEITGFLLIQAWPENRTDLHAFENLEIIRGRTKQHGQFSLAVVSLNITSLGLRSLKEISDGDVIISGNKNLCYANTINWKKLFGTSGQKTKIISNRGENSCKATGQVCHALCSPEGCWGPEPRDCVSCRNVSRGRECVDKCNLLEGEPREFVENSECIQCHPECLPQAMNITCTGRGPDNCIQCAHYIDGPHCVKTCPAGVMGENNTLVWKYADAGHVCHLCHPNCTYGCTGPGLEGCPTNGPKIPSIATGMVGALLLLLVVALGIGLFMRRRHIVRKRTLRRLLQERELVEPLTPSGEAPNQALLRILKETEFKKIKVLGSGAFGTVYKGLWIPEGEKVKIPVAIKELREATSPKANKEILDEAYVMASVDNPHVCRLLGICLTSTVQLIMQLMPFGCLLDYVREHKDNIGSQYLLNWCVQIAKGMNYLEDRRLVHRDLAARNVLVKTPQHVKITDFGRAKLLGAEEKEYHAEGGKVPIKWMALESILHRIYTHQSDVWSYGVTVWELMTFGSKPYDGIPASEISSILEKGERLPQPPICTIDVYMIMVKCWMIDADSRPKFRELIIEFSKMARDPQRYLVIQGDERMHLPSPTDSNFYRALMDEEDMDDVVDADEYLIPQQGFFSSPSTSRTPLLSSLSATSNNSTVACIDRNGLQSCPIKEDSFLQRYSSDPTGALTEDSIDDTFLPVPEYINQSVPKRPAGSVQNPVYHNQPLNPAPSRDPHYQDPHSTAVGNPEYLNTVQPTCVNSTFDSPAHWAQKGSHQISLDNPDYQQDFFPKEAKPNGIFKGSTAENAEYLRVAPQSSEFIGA

Question: `CN(C)C/C=C/C(=O)NCC1CCCC(Nc2nc(Nc3cnn(C)c3)ncc2Cl)C1` (centres unmarked) [Compound I-109, (E)-N-((3-((5-chloro-2-((1-methyl-1H-pyrazol-4-yl)amino)pyrimidin-4-yl)amino)cyclohexyl)methyl)-4-(dimethylamino)but-2-enamide] was tested. Which IC50 did it give?
Answer: > 100 nM

Question: For `C=CC(=O)Nc1cccc(Nc2nc(Nc3cnn(C)c3C)ncc2Cl)n1` (single isomer, unassigned) [Compound I-74, N-(6-((5-chloro-2-((1,5-dimethyl-1H-pyrazol-4-yl)amino)pyrimidin-4-yl)amino)pyridin-2-yl)acrylamide], which IC50 is on record?
Answer: > 100 nM

Question: With `CN1CCC(n2cc(Nc3ncc(Cl)c(Nc4cccc(NC(=O)C=C5CCC5)c4)n3)cn2)CC1` [Compound I-29, N-(3-((5-chloro-2-((1-(1-methylpiperidin-4-yl)-1H-pyrazol-4-yl)amino)pyrimidin-4-yl)amino)phenyl)-2-cyclobutylideneacetamide] as the molecule, how does the IC50 read?
Answer: > 100 nM

Question: Which IC50 does the source give for `C=CC(=O)Nc1cccc(Nc2nc(Nc3cnn(C)c3)ncc2Cl)n1` [Compound I-75, N-(6-((5-chloro-2-((1-methyl-1H-pyrazol-4-yl)amino)pyrimidin-4-yl)amino)pyridin-2-yl)acrylamide] here?
Answer: 10 to 100 nM

Question: `C=CC(=O)Nc1cccc(Nc2nc(Nc3cnn(C4CCOC4)c3)ncc2Cl)c1` (centres unmarked) [Compound I-49, N-(3-((5-chloro-2-((1-(tetrahydrofuran-3-yl)-1H-pyrazol-4-yl)amino)pyrimidin-4-yl)amino)phenyl)acrylamide] was tested. Which IC50 did it give?
Answer: 10 to 100 nM

Question: For `C=CC(=O)N[C@H]1CCC[C@@H](Nc2nc(Nc3cnn(C)c3)ncc2Cl)C1` (single isomer, unassigned) [I-104 (Enantiomer 3)], which IC50 is on record?
Answer: 10 to 100 nM

Question: With `C=CC(=O)Nc1cccc(Nc2nc(Nc3cnn(CCN(C)C)c3)ncc2Cl)c1` [Compound I-5, N-(3-((5-chloro-2-((1-(2-(dimethylamino)ethyl)-1H-pyrazol-4-yl)amino)pyrimidin-4-yl)amino)phenyl)acrylamide] as the molecule, how does the IC50 read?
Answer: 10 to 100 nM

Question: Which IC50 does the source give for `Cn1cc(Nc2ncc(Cl)c(Nc3cccc(N4C(=O)C=CC4=O)c3)n2)cn1` [Compound I-63, 1-(3-((5-chloro-2-((1-methyl-1H-pyrazol-4-yl)amino)pyrimidin-4-yl)amino)phenyl)-1H-pyrrole-2,5-dione] here?
Answer: > 100 nM

Question: `C=CC(=O)Nc1cccc(Nc2nc(Nc3cc(C)no3)ncc2Cl)c1` [Compound I-125, N-(3-((5-chloro-2-((3-methylisoxazol-5-yl)amino)pyrimidin-4-yl)amino)phenyl)acrylamide] was tested. Which IC50 did it give?
Answer: 10 to 100 nM

Question: With `C=CC(=O)N1CCCC(Nc2nc(Nc3cnn(C4CCC4)c3)ncc2Cl)C1` (single isomer, unassigned) [II-6 (Enantiomer 2), 1-(3-((5-chloro-2-((1-cyclobutyl-1H-pyrazol-4-yl)amino)pyrimidin-4-yl)amino)piperidin-1-yl)prop-2-en-1-one] as the molecule, how does the IC50 read?
Answer: > 100 nM

Question: `C=CC(=O)NC1CCC(Nc2nc(Nc3cnn(C)c3)ncc2Cl)C1` (centres unmarked) [Compound I-93, N-(3-((5-chloro-2-((1-methyl-1H-pyrazol-4-yl)amino)pyrimidin-4-yl)amino)cyclopentyl)acrylamide] was tested. Which IC50 did it give?
Answer: > 100 nM

Question: How did the IC50 turn out when `C=CS(=O)(=O)Nc1cc(Nc2nc(Nc3cnn(C4CCN(C)CC4)c3)ncc2Cl)ccc1F` [Compound I-64, N-(5-((5-chloro-2-((1-(1-methylpiperidin-4-yl)-1H-pyrazol-4-yl)amino)pyrimidin-4-yl)amino)-2-fluorophenyl)ethenesulfonamide] was run?
Answer: 10 to 100 nM

Question: For `C=CC(=O)N[C@H]1CCCC[C@@H](Nc2nc(Nc3cnn(C)c3)ncc2Cl)C1` (single isomer, unassigned) [I-112 (Isomer 1)], which IC50 is on record?
Answer: > 100 nM

Question: How did the IC50 turn out when `CN(C)C/C=C/C(=O)N1CCCC(Nc2nc(Nc3cnn(C)c3)ncc2Cl)C1` (single isomer, unassigned) [II-4 (Enantiomer 2), (E)-1-(3-((5-chloro-2-((1-methyl-1H-pyrazol-4-yl)amino)pyrimidin-4-yl)amino)piperidin-1-yl)-4-(dimethylamino)but-2-en-1-one] was run?
Answer: > 100 nM

Question: For `C=CC(=O)N1CCC(Nc2nc(Nc3cnn(C)c3)ncc2Cl)C1` (racemic) [II-7 (Racemic), 1-(3-((5-chloro-2-((1-methyl-1H-pyrazol-4-yl)amino)pyrimidin-4-yl)amino)pyrrolidin-1-yl)prop-2-en-1-one], which IC50 is on record?
Answer: > 100 nM

Question: Which IC50 does the source give for `C=CC(=O)Nc1ccc(F)c(Nc2nc(Nc3ncc(C#N)s3)ncc2Cl)c1` [Compound I-121, N-(3-((5-chloro-2-((5-cyanothiazol-2-yl)amino)pyrimidin-4-yl)amino)-4-fluorophenyl)acrylamide] here?
Answer: > 100 nM

Question: For `C=CC(=O)NC1CCC(Nc2nc(Nc3cnn(C)c3)ncc2Cl)CC1` (centres unmarked) [Compound I-94, N-(4-((5-chloro-2-((1-methyl-1H-pyrazol-4-yl)amino)pyrimidin-4-yl)amino)cyclohexyl)acrylamide], which IC50 is on record?
Answer: > 100 nM

Question: `C=CC(=O)Nc1cccc(Oc2nc(Nc3cnn(CCO)c3)ncc2Cl)c1` [Compound I-47, N-(3-((5-chloro-2-((1-(2-hydroxyethyl)-1H-pyrazol-4-yl)amino)pyrimidin-4-yl)oxy)phenyl)acrylamide] was tested. Which IC50 did it give?
Answer: < 10 nM

Question: `C=CC(=O)Nc1cccc(Nc2nc(Nc3cnn(C)c3)ncc2C)c1` [Compound I-15, N-(3-((5-methyl-2-((1-methyl-1H-pyrazol-4-yl)amino)pyrimidin-4-yl)amino)phenyl)acrylamide] was tested. Which IC50 did it give?
Answer: 10 to 100 nM

Question: Which IC50 does the source give for `C=CC(=O)N1CCCC(Nc2nc(Nc3cnn(C)c3)ncc2Cl)C1` (single isomer, unassigned) [II-2 (Enantiomer 2), 1-(3-((5-chloro-2-((1-methyl-1H-pyrazol-4-yl)amino)pyrimidin-4-yl)amino)piperidin-1-yl)prop-2-en-1-one] here?
Answer: > 100 nM

Question: For `C/C=C/C(=O)Nc1cccc(Nc2nc(Nc3cnn(C4CCN(C)CC4)c3)ncc2Cl)c1` [Compound I-51, (E)-N-(3-((5-chloro-2-((1-(1-methylpiperidin-4-yl)-1H-pyrazol-4-yl)amino)pyrimidin-4-yl)amino)phenyl)but-2-enamide], which IC50 is on record?
Answer: > 100 nM

Question: How did the IC50 turn out when `C=CC(=O)Nc1cc(Nc2nc(Nc3cnn(C)c3)ncc2Cl)ccc1OC1CCOC1` (centres unmarked) [Compound I-55, N-(5-((5-chloro-2-((1-methyl-1H-pyrazol-4-yl)amino)pyrimidin-4-yl)amino)-2-((tetrahydrofuran-3-yl)oxy)phenyl)acrylamide] was run?
Answer: > 100 nM

Question: `C=CC(=O)N[C@@H]1CCC[C@@H](Nc2nc(Nc3cnn(C)c3)ncc2Cl)C1` (single isomer, unassigned) [I-106 (Enantiomer 1)] was tested. Which IC50 did it give?
Answer: > 100 nM

Question: `CN1CCC(n2cc(Nc3ncc(Cl)c(Nc4cccc(NC(=O)C=C5CCOCC5)c4)n3)cn2)CC1` [Compound I-26, N-(3-((5-chloro-2-((1-(1-methylpiperidin-4-yl)-1H-pyrazol-4-yl)amino)pyrimidin-4-yl)amino)phenyl)-2-(dihydro-2H-pyran-4(3H)-ylidene)acetamide] was tested. Which IC50 did it give?
Answer: > 100 nM

Question: `C=CC(=O)N1CCCC(Nc2nc(Nc3cnn(C)c3)ncc2Cl)C1` (single isomer, unassigned) [II-1 (Enantiomer 1), 1-(3-((5-chloro-2-((1-methyl-1H-pyrazol-4-yl)amino)pyrimidin-4-yl)amino)piperidin-1-yl)prop-2-en-1-one] was tested. Which IC50 did it give?
Answer: > 100 nM

Question: With `C=CC(=O)NC1CCCC(Nc2nc(Nc3cn(C)nc3Cl)ncc2Cl)C1` (centres unmarked) [Compound I-95, N-(3-((5-chloro-2-((3-chloro-1-methyl-1H-pyrazol-4-yl)amino)pyrimidin-4-yl)amino)cyclohexyl)acrylamide] as the molecule, how does the IC50 read?
Answer: 10 to 100 nM
